According to the supplement of paper PMC10307832:

Key:
Experiment in all cases: relative viability (nuclei count vs DMSO), 5 days (fraction); higher = more cells survive
[1] = tested on: NCI-H2126
Method in brief: (§1)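 Cells from lung cancer lines were seeded into 1536-well plates and, one day later, dosed by pin tool. Treatments were either a single drug or a fixed dose of an anchor drug with five library-drug doses (not always all listed) in √10 steps. After 5 days, nuclei were stained in a one-step fixation (final 0.05% Triton X-100, 1% formaldehyde, 1 ug/ml Hoechst) and counted on 4× images, and relative viability is the treated-to-vehicle nuclei ratio, as the median of duplicate plates.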

[2] = tested on: RERF-LC-KJ
Method in brief: as §1

[3] = tested on: SW 900
Method in brief: as §1

[4] = tested on: NCI-H2405
Method in brief: as §1

[5] = tested on: LK-2
Method in brief: as §1

[6] = tested on: SW 1573
Method in brief: as §1

[7] = tested on: HCC-78
Method in brief: as §1

[8] = tested on: NCI-H23
Method in brief: as §1

[9] = tested on: LOU-NH91
Method in brief: as §1

[10] = tested on: LU99A
Method in brief: as §1

[11] = tested on: EPLC-272H
Method in brief: as §1

[12] = tested on: LCLC-103H
Method in brief: as §1

[13] = tested on: NCI-H1666
Method in brief: as §1

[14] = tested on: SK-LU-1
Method in brief: as §1

[15] = tested on: NCI-H2085
Method in brief: as §1

[16] = tested on: NCI-H3122
Method in brief: as §1

[17] = tested on: HCC-366
Method in brief: as §1

[18] = tested on: EMC-BAC-2
Method in brief: as §1

[19] = tested on: LXF-289
Method in brief: as §1

[20] = tested on: HCC-44
Method in brief: as §1

[21] = tested on: HCC-827
Method in brief: as §1

[22] = tested on: NCI-H1975
Method in brief: as §1

[23] = tested on: ChaGo-K-1
Method in brief: as §1

COc1cc(N2CCC(C(N)=O)CC2)ccc1Nc1nc(N)c(Cl)c(Nc2ccccc2S(=O)(=O)C(C)C)n1 [HG-5-88-01] + Cc1cc(Nc2cc(N3CCN(C)CC3)nc(Sc3ccc(NC(=O)C4CC4)cc3)n2)n[nH]1 [Tozasertib] (partner 0.1 µM)
relative viability ([1]; first compound 0.04 µM): 0.937
relative viability ([1]; first compound 0.1265 µM): 0.941
relative viability ([1]; first compound 0.4 µM): 0.849
relative viability ([1]; first compound 1.265 µM): 0.467
relative viability ([1]; first compound 4 µM): 0.487
relative viability ([2]; first compound 0.04 µM): 0.58
relative viability ([2]; first compound 0.1265 µM): 0.509
relative viability ([2]; first compound 0.4 µM): 0.436
relative viability ([2]; first compound 1.265 µM): 0.373
relative viability ([2]; first compound 4 µM): 0.174
relative viability ([3]; first compound 0.04 µM): 0.533
relative viability ([3]; first compound 0.1265 µM): 0.656
relative viability ([3]; first compound 0.4 µM): 0.652
relative viability ([3]; first compound 1.265 µM): 0.417
relative viability ([3]; first compound 4 µM): 0.268
relative viability ([4]; first compound 0.04 µM): 0.765
relative viability ([4]; first compound 0.1265 µM): 0.704
relative viability ([4]; first compound 0.4 µM): 0.659
relative viability ([4]; first compound 1.265 µM): 0.395
relative viability ([4]; first compound 4 µM): 0.416
relative viability ([5]; first compound 0.04 µM): 0.171
relative viability ([5]; first compound 0.1265 µM): 0.18
relative viability ([5]; first compound 0.4 µM): 0.14
relative viability ([5]; first compound 1.265 µM): 0.18
relative viability ([5]; first compound 4 µM): 0.16
relative viability ([6]; first compound 0.04 µM): 0.169
relative viability ([6]; first compound 0.1265 µM): 0.128
relative viability ([6]; first compound 0.4 µM): 0.166
relative viability ([6]; first compound 1.265 µM): 0.157
relative viability ([6]; first compound 4 µM): 0.162
relative viability ([7]; first compound 0.04 µM): 0.428
relative viability ([7]; first compound 0.1265 µM): 0.315
relative viability ([7]; first compound 0.4 µM): 0.424
relative viability ([7]; first compound 1.265 µM): 0.231
relative viability ([7]; first compound 4 µM): 0.279
relative viability ([8]; first compound 0.04 µM): 0.337
relative viability ([8]; first compound 0.1265 µM): 0.388
relative viability ([8]; first compound 0.4 µM): 0.32
relative viability ([8]; first compound 1.265 µM): 0.284
relative viability ([8]; first compound 4 µM): 0.251
relative viability ([9]; first compound 0.04 µM): 0.657
relative viability ([9]; first compound 0.1265 µM): 0.614
relative viability ([9]; first compound 0.4 µM): 0.513
relative viability ([9]; first compound 1.265 µM): 0.376
relative viability ([9]; first compound 4 µM): 0.366
relative viability ([10]; first compound 0.04 µM): 0.29
relative viability ([10]; first compound 0.1265 µM): 0.301
relative viability ([10]; first compound 0.4 µM): 0.264
relative viability ([10]; first compound 1.265 µM): 0.267
relative viability ([10]; first compound 4 µM): 0.266
relative viability ([11]; first compound 0.04 µM): 0.257
relative viability ([11]; first compound 0.1265 µM): 0.301
relative viability ([11]; first compound 0.4 µM): 0.323
relative viability ([11]; first compound 1.265 µM): 0.141
relative viability ([11]; first compound 4 µM): 0.063
relative viability ([12]; first compound 0.04 µM): 0.483
relative viability ([12]; first compound 0.1265 µM): 0.511
relative viability ([12]; first compound 0.4 µM): 0.386
relative viability ([12]; first compound 1.265 µM): 0.611
relative viability ([12]; first compound 4 µM): 0.345
relative viability ([13]; first compound 0.04 µM): 0.577
relative viability ([13]; first compound 0.1265 µM): 0.603
relative viability ([13]; first compound 0.4 µM): 0.556
relative viability ([13]; first compound 1.265 µM): 0.498
relative viability ([13]; first compound 4 µM): 0.346
relative viability ([14]; first compound 0.04 µM): 0.337
relative viability ([14]; first compound 0.1265 µM): 0.311
relative viability ([14]; first compound 0.4 µM): 0.298
relative viability ([14]; first compound 1.265 µM): 0.228
relative viability ([14]; first compound 4 µM): 0.189
relative viability ([15]; first compound 0.04 µM): 0.805
relative viability ([15]; first compound 0.1265 µM): 0.784
relative viability ([15]; first compound 0.4 µM): 0.776
relative viability ([15]; first compound 1.265 µM): 0.696
relative viability ([15]; first compound 4 µM): 0.391
relative viability ([16]; first compound 0.04 µM): 0.221
relative viability ([16]; first compound 0.1265 µM): 0.146
relative viability ([16]; first compound 0.4 µM): 0.08
relative viability ([16]; first compound 1.265 µM): 0.112
relative viability ([16]; first compound 4 µM): 0.0832
relative viability ([17]; first compound 0.04 µM): 0.169
relative viability ([17]; first compound 0.1265 µM): 0.0937
relative viability ([17]; first compound 0.4 µM): 0.0774
relative viability ([17]; first compound 1.265 µM): 0.0436
relative viability ([17]; first compound 4 µM): 0.0402
relative viability ([18]; first compound 0.04 µM): 0.296
relative viability ([18]; first compound 0.1265 µM): 0.288
relative viability ([18]; first compound 0.4 µM): 0.261
relative viability ([18]; first compound 1.265 µM): 0.264
relative viability ([18]; first compound 4 µM): 0.24
relative viability ([19]; first compound 0.04 µM): 0.156
relative viability ([19]; first compound 0.1265 µM): 0.179
relative viability ([19]; first compound 0.4 µM): 0.185
relative viability ([19]; first compound 1.265 µM): 0.196
relative viability ([19]; first compound 4 µM): 0.0786
relative viability ([20]; first compound 0.04 µM): 1.1
relative viability ([20]; first compound 0.1265 µM): 0.928
relative viability ([20]; first compound 0.4 µM): 0.745
relative viability ([20]; first compound 1.265 µM): 0.328
relative viability ([20]; first compound 4 µM): 0.14
relative viability ([21]; first compound 0.04 µM): 0.475
relative viability ([21]; first compound 0.1265 µM): 0.439
relative viability ([21]; first compound 0.4 µM): 0.401
relative viability ([21]; first compound 1.265 µM): 0.346
relative viability ([21]; first compound 4 µM): 0.263
relative viability ([22]; first compound 0.04 µM): 0.815
relative viability ([22]; first compound 0.1265 µM): 0.715
relative viability ([22]; first compound 0.4 µM): 0.565
relative viability ([22]; first compound 1.265 µM): 0.251
relative viability ([22]; first compound 4 µM): 0.143
relative viability ([23]; first compound 0.04 µM): 0.213
relative viability ([23]; first compound 0.1265 µM): 0.25
relative viability ([23]; first compound 0.4 µM): 0.155
relative viability ([23]; first compound 1.265 µM): 0.229
relative viability ([23]; first compound 4 µM): 0.211
